Laboratory results taken from ChEMBL document CHEMBL5150065, “Design, synthesis, and bioevaluation of imidazo [1,2-a] pyrazine derivatives as tubulin polymerization inhibitors with potent anticancer activities” (Bioorg Med Chem, 2022).
Active and inactive are the calls of the source. The rule behind the calls is not given here.

Key:
HepG2 = test: Antiproliferative activity against human HepG2 cells assessed as inhibition of cell growth incubated for 48 hrs by MTT assay; assay type: functional, cell-based; details: HepG2, 48 h
HCT-116 [1] = test: Antiproliferative activity against human HCT-116 cells assessed as inhibition of cell growth incubated for 48 hrs by MTT assay; assay type: functional, cell-based; details: HCT-116, 48 h
A549 = test: Antiproliferative activity against human A549 cells assessed as inhibition of cell growth incubated for 48 hrs by MTT assay; assay type: functional, cell-based; details: A549, 48 h
MDA-MB-231 = test: Antiproliferative activity against human MDA-MB-231 cells assessed as inhibition of cell growth incubated for 48 hrs by MTT assay; assay type: functional, cell-based; details: MDA-MB-231, 48 h
Tubulin (Sus scrofa) = Tubulin (Sus scrofa) (UniProt P02554+P02550); test: (§1) Inhibition of pig brain tubulin polymerization in the presence of GTP by spectrophotometric analysis; details: DDE = dose-dependent effect
Tubulin (Sus scrofa), sequence (P02550 whole entry, looked up): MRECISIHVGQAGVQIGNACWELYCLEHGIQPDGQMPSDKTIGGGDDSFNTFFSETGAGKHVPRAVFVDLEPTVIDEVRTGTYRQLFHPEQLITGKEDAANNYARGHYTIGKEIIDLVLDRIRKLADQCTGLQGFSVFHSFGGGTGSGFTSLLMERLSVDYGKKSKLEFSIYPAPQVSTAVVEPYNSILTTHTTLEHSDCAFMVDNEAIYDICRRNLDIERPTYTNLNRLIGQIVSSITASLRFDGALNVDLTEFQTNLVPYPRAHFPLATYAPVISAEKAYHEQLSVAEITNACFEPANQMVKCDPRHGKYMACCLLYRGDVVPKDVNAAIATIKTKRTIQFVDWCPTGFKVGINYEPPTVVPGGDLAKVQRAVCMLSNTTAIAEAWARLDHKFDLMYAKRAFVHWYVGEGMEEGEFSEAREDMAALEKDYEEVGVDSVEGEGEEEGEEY
Tubulin (Sus scrofa), sequence (P02554 whole entry, looked up): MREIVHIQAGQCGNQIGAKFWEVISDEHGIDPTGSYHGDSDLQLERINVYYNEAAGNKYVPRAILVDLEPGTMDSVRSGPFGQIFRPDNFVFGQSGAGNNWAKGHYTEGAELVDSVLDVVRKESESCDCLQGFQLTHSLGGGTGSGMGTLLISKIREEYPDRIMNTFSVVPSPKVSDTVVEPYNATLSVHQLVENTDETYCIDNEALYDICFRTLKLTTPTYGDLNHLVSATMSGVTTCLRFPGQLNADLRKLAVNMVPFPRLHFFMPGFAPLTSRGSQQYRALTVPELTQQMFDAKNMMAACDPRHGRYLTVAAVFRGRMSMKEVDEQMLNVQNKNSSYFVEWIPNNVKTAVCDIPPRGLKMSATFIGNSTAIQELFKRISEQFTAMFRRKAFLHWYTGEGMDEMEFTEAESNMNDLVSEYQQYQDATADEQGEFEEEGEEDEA

Tubulin = Tubulin (Sus scrofa, UniProt P02554+P02550); test: as §1
HCT-116 [2] = test: Induction of apoptosis in human HCT-116 cells assessed as total apoptotic cells at 20 nM incubated for 48 hrs by Annexin-V FITC/PI staining based flow cytometry analysis (reference value: 5.76 %); assay type: functional
HCT-116 [3] = test: Induction of apoptosis in human HCT-116 cells assessed as total apoptotic cells at 40 nM incubated for 48 hrs by Annexin-V FITC/PI staining based flow cytometry analysis (reference value: 5.76 %); assay type: functional
HCT-116 [4] = test: Induction of apoptosis in human HCT-116 cells assessed as total apoptotic cells at 80 nM incubated for 48 hrs by Annexin-V FITC/PI staining based flow cytometry analysis (reference value: 5.76 %); assay type: functional
HCT-116 [5] = test: Induction of apoptosis in human HCT-116 cells assessed as total apoptotic cells at 120 nM incubated for 48 hrs by Annexin-V FITC/PI staining based flow cytometry analysis (reference value: 5.76 %); assay type: functional
HCT-116 [6] = test: Induction of cell cycle arrest in human HCT-116 cells assessed as G1 phase cells at 20 nM measured after 48 hrs by propidium iodide/RNase staining based flow cytometry analysis (reference value: 61.51 %); assay type: functional
HCT-116 [7] = test: Induction of cell cycle arrest in human HCT-116 cells assessed as S phase cells at 20 nM measured after 48 hrs by propidium iodide/RNase staining based flow cytometry analysis (reference value: […] %); assay type: functional
HCT-116 [8] = test: Induction of cell cycle arrest in human HCT-116 cells assessed as increase in G2/M phase cells at 20 nM measured after 48 hrs by propidium iodide/RNase staining based flow cytometry analysis (reference value: […] %); assay type: functional
HCT-116 [9] = test: Induction of cell cycle arrest in human HCT-116 cells assessed as G1 phase cells at 40 nM measured after 48 hrs by propidium iodide/RNase staining based flow cytometry analysis (reference value: 61.51 %); assay type: functional
HCT-116 [10] = test: Induction of cell cycle arrest in human HCT-116 cells assessed as S phase cells at 40 nM measured after 48 hrs by propidium iodide/RNase staining based flow cytometry analysis (reference value: […] %); assay type: functional
HCT-116 [11] = test: Induction of cell cycle arrest in human HCT-116 cells assessed as increase in G2/M phase cells at 40 nM measured after 48 hrs by propidium iodide/RNase staining based flow cytometry analysis (reference value: […] %); assay type: functional
HCT-116 [12] = test: Induction of cell cycle arrest in human HCT-116 cells assessed as G1 phase cells at 80 nM measured after 48 hrs by propidium iodide/RNase staining based flow cytometry analysis (reference value: 61.51 %); assay type: functional
HCT-116 [13] = test: Induction of cell cycle arrest in human HCT-116 cells assessed as S phase cells at 80 nM measured after 48 hrs by propidium iodide/RNase staining based flow cytometry analysis (reference value: […] %); assay type: functional
HCT-116 [14] = test: Induction of cell cycle arrest in human HCT-116 cells assessed as increase in G2/M phase cells at 80 nM measured after 48 hrs by propidium iodide/RNase staining based flow cytometry analysis (reference value: […] %); assay type: functional
HCT-116 [15] = test: Induction of cell cycle arrest in human HCT-116 cells assessed as G1 phase cells at 120 nM measured after 48 hrs by propidium iodide/RNase staining based flow cytometry analysis (reference value: 61.51 %); assay type: functional
HCT-116 [16] = test: Induction of cell cycle arrest in human HCT-116 cells assessed as S phase cells at 120 nM measured after 48 hrs by propidium iodide/RNase staining based flow cytometry analysis (reference value: […] %); assay type: functional
HCT-116 [17] = test: Induction of cell cycle arrest in human HCT-116 cells assessed as increase in G2/M phase cells at 120 nM measured after 48 hrs by propidium iodide/RNase staining based flow cytometry analysis (reference value: […] %); assay type: functional
HCT-116 [18] = test: Inhibition of cell migration in human HCT-116 cells assessed as suppression of wound closure at 10 nM incubated for 48 hrs by wound healing assay relative to control; assay type: functional
HCT-116 [19] = test: Inhibition of cell migration in human HCT-116 cells assessed as suppression of wound closure at 20 nM incubated for 48 hrs by wound healing assay relative to control; assay type: functional
HCT-116 [20] = test: Inhibition of cell migration in human HCT-116 cells assessed as suppression of wound closure at 40 nM incubated for 48 hrs by wound healing assay relative to control; assay type: functional
HCT-116 [21] = test: Inhibition of cell migration in human HCT-116 cells assessed as suppression of wound closure at 80 nM incubated for 48 hrs by wound healing assay relative to control; assay type: functional
Tubulin (Homo sapiens) [22] = molecular target: T1, Tubulin (Homo sapiens) (UniProt P68371+Q9H4B7+P0DPH7+P68366+Q13509+Q71U36+P04350+Q3ZCM7+P07437+P68363+Q9BQE3+Q6PEY2+Q13885+Q9BVA1+Q9BUF5); test: Induction of microtubule disruption in human HCT-116 cells assessed as short microtubules at 20 to 60 nM incubated for 48 hrs by DAPI staining based confocal microscopic immunofluorescence analysis; assay type: cell-based; details: dose 20-60 nM
Tubulin (Homo sapiens) [23] = molecular target: T1, Tubulin (Homo sapiens); test: Induction of microtubule disruption in human HCT-116 cells assessed as disintegrated microtubules at 20 to 60 nM incubated for 48 hrs by DAPI staining based confocal microscopic immunofluorescence analysis; assay type: cell-based; details: dose 20-60 nM

COc1cc(-c2nccn3cc(-c4ccc5[nH]ccc5c4)nc23)cc(OC)c1OC
IC50 (HepG2): 146 nM | IC50 (HCT-116 [1]): 23 nM | IC50 (A549): 154 nM | IC50 (MDA-MB-231): 74 nM | inhibition (Tubulin (Sus scrofa)): Dde | IC50 (Tubulin): 45700 nM | Activity (HCT-116 [2]): 6.25% | Activity (HCT-116 [3]): 29.53% | Activity (HCT-116 [4]): 37.2% | Activity (HCT-116 [5]): 50.07% | Activity (HCT-116 [6]): 61.42% | Activity (HCT-116 [7]): 17.47% | Activity (HCT-116 [8]): 21.11% | Activity (HCT-116 [9]): 60.42% | Activity (HCT-116 [10]): 21.98% | Activity (HCT-116 [11]): 17.6% | Activity (HCT-116 [12]): 11.9% | Activity (HCT-116 [13]): 8.87% | Activity (HCT-116 [14]): 79.23% | Activity (HCT-116 [15]): 8.17% | Activity (HCT-116 [16]): 12.16% | Activity (HCT-116 [17]): 79.67% | inhibition at 0.01 µM (HCT-116 [18]): 30.8% | inhibition at 0.02 µM (HCT-116 [19]): 55% | inhibition at 0.04 µM (HCT-116 [20]): 56.8% | inhibition at 0.08 µM (HCT-116 [21]): 60.6% | Activity (Tubulin (Homo sapiens) [22]): Active | Activity (Tubulin (Homo sapiens) [23]): Active
